Results reported in PubChem BioAssay (NCI).
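GI50 marks 50% less growth. TGI is the concentration that stops growth completely.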

Key:
Experiment in all cases: growth of human tumour cells (NCI), 384-well format
[1] = system: NCI-H226 lung
[2] = system: NCI-H23 lung
[3] = system: NCI-H322M lung
[4] = system: NCI-H460 NSCLC
[5] = system: NCI-H522 lung
[6] = system: NCI/ADR-RES ovarian
[7] = system: OVCAR-3 ovarian
[8] = system: OVCAR-4 ovarian
[9] = system: OVCAR-5 ovarian
[10] = system: OVCAR-8 ovarian
[11] = system: PC-3 prostate
[12] = system: RPMI-8226 leukemia
[13] = system: RXF 393 renal
[14] = system: SF-268 CNS
[15] = system: SF-295 CNS
[16] = system: SF-539 CNS
[17] = system: SK-MEL-2 melanoma
[18] = system: SK-MEL-28 melanoma
[19] = system: SK-MEL-5 melanoma
[20] = system: SK-OV-3 ovarian
[21] = system: SN12C renal
[22] = system: SNB-19 CNS
[23] = system: SNB-75 CNS
[24] = system: SW-620 colon
[25] = system: T-47D breast
[26] = system: TK-10 renal
[27] = system: U251 glioblastoma
[28] = system: UACC-257 melanoma
[29] = system: UACC-62 melanoma
[30] = system: UO-31 renal

## CCn1nc(C2CCN(C(=O)CCO)CC2)nc1-c1cnc(N)c(-c2nnc(C(C)(C)C)o2)n1
[1]
  TGI: > 100 µM
[2]
  GI50: 16.7 µM
  TGI: 73.7 µM
[3]
  GI50: 5 µM
  TGI: > 100 µM
[4]
  GI50: 1190 nM
  TGI: > 100 µM
[5]
  GI50: 15.1 µM
  TGI: 38.6 µM
[6]
  GI50: 19.4 µM
  TGI: 84.1 µM
[7]
  GI50: 7 µM
  TGI: 22.1 µM
[8]
  GI50: 32.9 µM
  TGI: > 100 µM
[9]
  GI50: 10.7 µM
  TGI: > 100 µM
[10]
  GI50: 29.8 µM
  TGI: > 100 µM
[11]
  GI50: 3.65 µM
  TGI: > 100 µM
[12]
  GI50: 16.5 µM
  TGI: 30.9 µM
[13]
  GI50: 2420 nM
  TGI: 15.7 µM
[14]
  GI50: 24.4 µM
  TGI: > 100 µM
[15]
  GI50: 993 nM
  TGI: > 100 µM
[16]
  GI50: 16.6 µM
  TGI: > 100 µM
[17]
  GI50: 17.3 µM
  TGI: > 100 µM
[18]
  GI50: 5.59 µM
  TGI: > 100 µM
[19]
  GI50: 8.62 µM
  TGI: 36.9 µM
[20]
  GI50: 599 nM
  TGI: 14.8 µM
[21]
  GI50: 5.27 µM
  TGI: > 100 µM
[22]
  GI50: 35.2 µM
  TGI: > 100 µM
[23]
  GI50: 1130 nM
  TGI: 13.2 µM
[24]
  GI50: 34.4 µM
  TGI: > 100 µM
[25]
  GI50: 170 nM
  TGI: 832 nM
[26]
  GI50: 2710 nM
  TGI: 76.4 µM
[27]
  GI50: 41.7 µM
  TGI: > 100 µM
[28]
  GI50: 22.2 µM
  TGI: > 100 µM
[29]
  GI50: 6.81 µM
  TGI: > 100 µM
[30]
  GI50: 4.31 µM
  TGI: 77.2 µM
